# Measurements reported in patent US10485235B2, “Aryloxypyrimidinyl ethers as herbicides” (FMC Corporation, priority 2015, dated 2019).
# Tests used:
# Type in all cases: in vivo
# kochia (Kochia scoparia) [1] = test: Test A preemergence, kochia; conditions: Preemergence, 0 to 100 scale (0 no effect, 100 complete control)
# Method in brief: (§1)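 Injury was assessed visually about ten days after application, relative to untreated plants, with 0 meaning no effect and 100 complete control. Treatments were soil-directed sprays after sowing (pre) or sprays on seedlings at one to two leaves (post), in loam soil/sand.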
# [2] = system: blackgrass (Alopecurus myosuroides); test: Test A postemergence, blackgrass; conditions: postemergence, 0 to 100 scale, 0 is no effect, 100 is complete control, approximately 10 days
# Method in brief: as §1
# [3] = system: sedge, umbrella (small-flower umbrella sedge, Cyperus difformis); test: Test B flooded paddy test, umbrella sedge; conditions: 250 g ai/ha, Flood; visual rating after 13 to 15 days; scale 0 to 100, 0 is no effect, 100 is complete control
# Method in brief: (§2)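 Visual injury scored 0 (no effect) to 100 (complete control) relative to controls 13-15 days after treatment in greenhouse. Treatment: test compound added into paddy water of pots flooded 3 cm over soil, holding 2-leaf-stage plants; water level kept constant.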
# [4] = system: foxtail, giant (giant foxtail, Setaria faberii); test: Test A postemergence, giant foxtail; conditions: postemergence, 0 to 100 scale, 0 is no effect, 100 is complete control, approximately 10 days
# Method in brief: as §1
# [5] = system: ducksalad (Heteranthera limosa); test: Test B flooded paddy test, ducksalad; conditions: 250 g ai/ha, Flood; visual rating after 13 to 15 days; scale 0 to 100, 0 is no effect, 100 is complete control
# Method in brief: as §2
# [6] = system: barnyardgrass (Echinochloa crus-galli); test: Test B flooded paddy test, barnyardgrass; conditions: 250 g ai/ha, Flood; visual rating after 13 to 15 days; scale 0 to 100, 0 is no effect, 100 is complete control
# Method in brief: as §2
# corn (Zea mays) = test: Test A postemergence, corn; conditions: postemergence, 0 to 100 scale, 0 is no effect, 100 is complete control, approximately 10 days
# Method in brief: as §1
# [7] = system: galium (catchweed bedstraw, Galium aparine); test: Test A postemergence, galium; conditions: postemergence, 0 to 100 scale, 0 is no effect, 100 is complete control, approximately 10 days
# Method in brief: as §1
# [8] = system: foxtail, giant (giant foxtail, Setaria faberii); test: Test A preemergence, giant foxtail; conditions: Preemergence, 0 to 100 scale (0 no effect, 100 complete control)
# Method in brief: as §1
# [9] = system: wheat (Triticum aestivum); test: Test A postemergence, wheat; conditions: postemergence, 0 to 100 scale, 0 is no effect, 100 is complete control, approximately 10 days
# Method in brief: as §1
# [10] = system: ryegrass, Italian (Italian ryegrass, Lolium multiflorum); test: Test A preemergence, Italian ryegrass; conditions: Preemergence, 0 to 100 scale (0 no effect, 100 complete control)
# Method in brief: as §1
# [11] = system: pigweed (Amaranthus retroflexus); test: Test A preemergence, pigweed; conditions: Preemergence, 0 to 100 scale (0 no effect, 100 complete control)
# Method in brief: as §1
# [12] = system: ragweed (common ragweed, Ambrosia elatior); test: Test A postemergence, ragweed; conditions: postemergence, 0 to 100 scale, 0 is no effect, 100 is complete control, approximately 10 days
# Method in brief: as §1
# kochia (Kochia scoparia) [13] = test: Test A postemergence, kochia; conditions: postemergence, 0 to 100 scale, 0 is no effect, 100 is complete control, approximately 10 days
# Method in brief: as §1
# [14] = system: barnyardgrass (Echinochloa crus-galli); test: Test A postemergence, barnyardgrass; conditions: postemergence, 0 to 100 scale, 0 is no effect, 100 is complete control, approximately 10 days
# Method in brief: as §1
# [15] = system: barnyardgrass (Echinochloa crus-galli); test: Test A preemergence, barnyardgrass; conditions: Preemergence, 0 to 100 scale (0 no effect, 100 complete control)
# Method in brief: as §1
# [16] = system: ryegrass, Italian (Italian ryegrass, Lolium multiflorum); test: Test A postemergence, Italian ryegrass; conditions: postemergence, 0 to 100 scale, 0 is no effect, 100 is complete control, approximately 10 days
# Method in brief: as §1
# rice (Oryza sativa) = test: Test B flooded paddy test, rice; conditions: 250 g ai/ha, Flood; visual rating after 13 to 15 days; scale 0 to 100, 0 is no effect, 100 is complete control
# Method in brief: as §2
# [17] = system: ragweed (common ragweed, Ambrosia elatior); test: Test A preemergence, ragweed; conditions: Preemergence, 0 to 100 scale (0 no effect, 100 complete control)
# Method in brief: as §1
# [18] = system: pigweed (Amaranthus retroflexus); test: Test A postemergence, pigweed; conditions: postemergence, 0 to 100 scale, 0 is no effect, 100 is complete control, approximately 10 days
# Method in brief: as §1
Structure (SMILES),"Plant response rating, Kochia (kochia (Kochia scoparia) [1]; 125 g ai/ha)","Plant response rating, Blackgrass ([2]; 125 g ai/ha)","Plant response rating, Sedge, Umbrella [3]","Plant response rating, Foxtail, Giant ([4]; 125 g ai/ha)","Plant response rating, Ducksalad [5]","Plant response rating, Barnyardgrass [6]","Plant response rating, Corn (corn (Zea mays); 125 g ai/ha)","Plant response rating, Galium ([7]; 125 g ai/ha)","Plant response rating, Foxtail, Giant ([8]; 125 g ai/ha)","Plant response rating, Wheat ([9]; 125 g ai/ha)","Plant response rating, Ryegrass, Italian ([10]; 125 g ai/ha)","Plant response rating, Pigweed ([11]; 125 g ai/ha)","Plant response rating, Ragweed ([12]; 125 g ai/ha)","Plant response rating, Kochia (kochia (Kochia scoparia) [13]; 125 g ai/ha)","Plant response rating, Barnyardgrass ([14]; 125 g ai/ha)","Plant response rating, Barnyardgrass ([15]; 125 g ai/ha)","Plant response rating, Ryegrass, Italian ([16]; 125 g ai/ha)","Plant response rating, Rice (rice (Oryza sativa))","Plant response rating, Ragweed ([17]; 125 g ai/ha)","Plant response rating, Pigweed ([18]; 125 g ai/ha)",further results
Fc1cccc(Oc2ncc(Cl)cn2)c1OCCC(F)(F)F [Compound 29],40,0,0,20,50,0,0,20,70,0,10,100,0,40,20,70,0,0,0,50,"Plant response rating, Kochia (kochia (Kochia scoparia) [1]; 500 g ai/ha): 100; Plant response rating, Blackgrass ([2]; 500 g ai/ha): 50; Plant response rating, Foxtail, Giant ([4]; 500 g ai/ha): 80; Plant response rating, Corn (corn (Zea mays); 500 g ai/ha): 10; Plant response rating, Galium ([7]; 500 g ai/ha): 50; Plant response rating, Foxtail, Giant ([8]; 500 g ai/ha): 100; Plant response rating, Wheat ([9]; 500 g ai/ha): 20; Plant response rating, Ryegrass, Italian ([10]; 500 g ai/ha): 70; Plant response rating, Pigweed ([11]; 500 g ai/ha): 100; Plant response rating, Ragweed ([12]; 500 g ai/ha): 10; Plant response rating, Kochia (kochia (Kochia scoparia) [13]; 500 g ai/ha): 80; Plant response rating, Barnyardgrass ([14]; 500 g ai/ha): 70; Plant response rating, Barnyardgrass ([15]; 500 g ai/ha): 100; Plant response rating, Ryegrass, Italian ([16]; 500 g ai/ha): 20; Plant response rating, Ragweed ([17]; 500 g ai/ha): 20; Plant response rating, Pigweed ([18]; 500 g ai/ha): 100"
N#Cc1cccc(Oc2ncc(F)cn2)c1OCCC(F)(F)F [Compound 40],100,30,70,80,75,0,20,60,90,0,10,100,10,70,50,80,10,0,90,90,"Plant response rating, Kochia (kochia (Kochia scoparia) [1]; 31 g ai/ha): 90; Plant response rating, Blackgrass ([2]; 31 g ai/ha): 10; Plant response rating, Foxtail, Giant ([4]; 31 g ai/ha): 10; Plant response rating, Corn (corn (Zea mays); 31 g ai/ha): 10; Plant response rating, Galium ([7]; 31 g ai/ha): 20; Plant response rating, Foxtail, Giant ([8]; 31 g ai/ha): 70; Plant response rating, Wheat ([9]; 31 g ai/ha): 0; Plant response rating, Ryegrass, Italian ([10]; 31 g ai/ha): 0; Plant response rating, Pigweed ([11]; 31 g ai/ha): 100; Plant response rating, Ragweed ([12]; 31 g ai/ha): 0; Plant response rating, Kochia (kochia (Kochia scoparia) [13]; 31 g ai/ha): 50; Plant response rating, Barnyardgrass ([14]; 31 g ai/ha): 0; Plant response rating, Barnyardgrass ([15]; 31 g ai/ha): 30; Plant response rating, Ryegrass, Italian ([16]; 31 g ai/ha): 0; Plant response rating, Ragweed ([17]; 31 g ai/ha): 10; Plant response rating, Pigweed ([18]; 31 g ai/ha): 80"
N#Cc1cccc(Oc2ncc(Cl)cn2)c1OCC(F)(F)C(F)F [Compound 14],90,60,0,80,0,0,20,50,100,20,10,100,10,100,80,90,10,0,0,100,"Plant response rating, Kochia (kochia (Kochia scoparia) [1]; 500 g ai/ha): 100; Plant response rating, Blackgrass ([2]; 500 g ai/ha): 90; Plant response rating, Foxtail, Giant ([4]; 500 g ai/ha): 100; Plant response rating, Corn (corn (Zea mays); 500 g ai/ha): 50; Plant response rating, Galium ([7]; 500 g ai/ha): 100; Plant response rating, Foxtail, Giant ([8]; 500 g ai/ha): 100; Plant response rating, Wheat ([9]; 500 g ai/ha): 40; Plant response rating, Ryegrass, Italian ([10]; 500 g ai/ha): 70; Plant response rating, Pigweed ([11]; 500 g ai/ha): 100; Plant response rating, Ragweed ([12]; 500 g ai/ha): 20; Plant response rating, Kochia (kochia (Kochia scoparia) [13]; 500 g ai/ha): 100; Plant response rating, Barnyardgrass ([14]; 500 g ai/ha): 100; Plant response rating, Barnyardgrass ([15]; 500 g ai/ha): 100; Plant response rating, Ryegrass, Italian ([16]; 500 g ai/ha): 50; Plant response rating, Ragweed ([17]; 500 g ai/ha): 0; Plant response rating, Pigweed ([18]; 500 g ai/ha): 100"
N#Cc1cccc(Oc2ncc(F)cn2)c1OC/C=C/C(F)(F)F [Compound 39],100,60,100,90,65,30,50,60,100,20,20,100,10,90,40,100,50,15,10,100,"Plant response rating, Kochia (kochia (Kochia scoparia) [1]; 31 g ai/ha): 60; Plant response rating, Blackgrass ([2]; 31 g ai/ha): 10; Plant response rating, Foxtail, Giant ([4]; 31 g ai/ha): 20; Plant response rating, Corn (corn (Zea mays); 31 g ai/ha): 20; Plant response rating, Galium ([7]; 31 g ai/ha): 20; Plant response rating, Foxtail, Giant ([8]; 31 g ai/ha): 90; Plant response rating, Wheat ([9]; 31 g ai/ha): 0; Plant response rating, Ryegrass, Italian ([10]; 31 g ai/ha): 0; Plant response rating, Pigweed ([11]; 31 g ai/ha): 100; Plant response rating, Ragweed ([12]; 31 g ai/ha): 0; Plant response rating, Kochia (kochia (Kochia scoparia) [13]; 31 g ai/ha): 90; Plant response rating, Barnyardgrass ([14]; 31 g ai/ha): 20; Plant response rating, Barnyardgrass ([15]; 31 g ai/ha): 50; Plant response rating, Ryegrass, Italian ([16]; 31 g ai/ha): 0; Plant response rating, Ragweed ([17]; 31 g ai/ha): 0; Plant response rating, Pigweed ([18]; 31 g ai/ha): 90"
